The target in this assay is T1, Lipase (Diutina rugosa, UniProt P20261).
T1 construct: gene LIP1
T1 sequence (P20261 16-549): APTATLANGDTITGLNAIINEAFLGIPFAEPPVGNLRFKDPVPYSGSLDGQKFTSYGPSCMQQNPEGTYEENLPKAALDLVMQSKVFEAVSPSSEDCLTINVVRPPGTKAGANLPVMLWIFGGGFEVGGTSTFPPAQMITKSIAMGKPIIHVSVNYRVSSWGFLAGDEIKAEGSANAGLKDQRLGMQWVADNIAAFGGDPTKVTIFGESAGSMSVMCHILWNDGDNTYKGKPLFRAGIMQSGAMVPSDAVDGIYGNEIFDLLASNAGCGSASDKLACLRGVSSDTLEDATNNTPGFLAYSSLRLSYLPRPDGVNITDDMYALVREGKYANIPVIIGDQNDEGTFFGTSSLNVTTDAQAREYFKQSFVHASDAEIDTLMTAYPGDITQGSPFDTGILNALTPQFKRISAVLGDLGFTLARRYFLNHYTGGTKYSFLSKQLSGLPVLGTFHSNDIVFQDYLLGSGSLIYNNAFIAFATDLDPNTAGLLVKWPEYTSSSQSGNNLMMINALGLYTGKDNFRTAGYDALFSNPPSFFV
The experiment in a line: lipase activity assay, personal glucose meter readout, % inhibition at […]. Type of assay: biochemical.
For the compound `O=C(O[C@@H]1Cc2c(O)cc(O)cc2O[C@@H]1c1ccc(O)c(O)c1)c1cc(O)c(O)c(O)c1` [(−)-Epicatechin gallate], the inhibition at 2000 µM came to 46.5 ± 2.2%.
The compound `Oc1cc(O)c2c(c1)O[C@H](c1cc(O)c(O)c(O)c1)[C@H](O)C2` [(−)-Epigallocatechin] came in with an inhibition at 2000 µM of 47.2 ± 1.6%.
`Oc1cc(O)c2c(c1)O[C@H](c1ccc(O)c(O)c1)[C@H](O)C2` [Epicatechin] gave an inhibition at 2000 µM of 42.8 ± 1.8%.
The compound `O=C(/C=C/c1ccc(O)c(O)c1)O[C@H](Cc1ccc(O)c(O)c1)C(=O)O` [Rosmarinic acid] yielded an inhibition at 2000 µM of 39.3 ± 3%.

Usually inhibition stands for the change of the read-out against control, counted positive when it falls. Low readings indicate a response near the control, high ones a response far below the control.
